Results taken from the supplement of paper PMC10307832.

What was measured:
Assay in all cases: relative viability (nuclei count vs DMSO), 5 days (fraction); higher = more cells survive
[1] = test system: NCI-H650
In short: (§1)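 Lung cancer cell lines, seeded in 1536-well plates, were treated the following day by pin tool with a single drug or with five library-drug doses (not always all listed) in √10 steps on top of a fixed anchor-drug dose. Cells were fixed and nuclei stained in one step after 5 days, and nuclei were counted. Relative viability is the nuclei count for treated wells divided by that for vehicle wells, reported as medians of duplicate plates.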

[2] = test system: SW 1573
In short: as §1

[3] = test system: NCI-H2023
In short: as §1

[4] = test system: NCI-H1993
In short: as §1

[5] = test system: NCI-H1915
In short: as §1

[6] = test system: NCI-H838
In short: as §1

[7] = test system: PC-14
In short: as §1

[8] = test system: NCI-H2126
In short: as §1

[9] = test system: EPLC-272H
In short: as §1

[10] = test system: HCC-15
In short: as §1

[11] = test system: HOP-62
In short: as §1

[12] = test system: UMC-11
In short: as §1

[13] = test system: LC-2-ad
In short: as §1

[14] = test system: NCI-H2085
In short: as §1

[15] = test system: LU99A
In short: as §1

[16] = test system: HARA
In short: as §1

[17] = test system: NCI-H2347
In short: as §1

[18] = test system: HCC-44
In short: as §1

[19] = test system: COR-L23
In short: as §1

[20] = test system: NCI-H1355
In short: as §1

[21] = test system: NCI-H1651
In short: as §1

CC(=O)O[C@@]12CO[C@@H]1C[C@H](O)[C@@]1(C)C(=O)[C@H](O)C3=C(C)[C@@H](OC(=O)[C@H](O)[C@@H](NC(=O)OC(C)(C)C)c4ccccc4)C[C@@](O)([C@@H](OC(=O)c4ccccc4)[C@H]21)C3(C)C [Docetaxel] + CC(=O)Nc1cccc(-n2c(=O)n(C3CC3)c(=O)c3c(Nc4ccc(I)cc4F)n(C)c(=O)c(C)c32)c1 [Trametinib] (partner 0.02 µM)
relative viability ([1]; first compound 0.0002 µM): 0.932 | relative viability ([1]; first compound 0.000632 µM): 0.644 | relative viability ([1]; first compound 0.002 µM): 0.318 | relative viability ([1]; first compound 0.006325 µM): 0.295 | relative viability ([1]; first compound 0.02 µM): 0.16 | relative viability ([2]; first compound 0.0002 µM): 0.467 | relative viability ([2]; first compound 0.000632 µM): 0.307 | relative viability ([2]; first compound 0.002 µM): 0.165 | relative viability ([2]; first compound 0.006325 µM): 0.192 | relative viability ([2]; first compound 0.02 µM): 0.108 | relative viability ([3]; first compound 0.0002 µM): 0.498 | relative viability ([3]; first compound 0.000632 µM): 0.521 | relative viability ([3]; first compound 0.002 µM): 0.141 | relative viability ([3]; first compound 0.006325 µM): 0.127 | relative viability ([3]; first compound 0.02 µM): 0.0628 | relative viability ([4]; first compound 0.0002 µM): 0.504 | relative viability ([4]; first compound 0.000632 µM): 0.578 | relative viability ([4]; first compound 0.002 µM): 0.546 | relative viability ([4]; first compound 0.006325 µM): 0.481 | relative viability ([4]; first compound 0.02 µM): 0.3 | relative viability ([5]; first compound 0.0002 µM): 0.3 | relative viability ([5]; first compound 0.000632 µM): 0.288 | relative viability ([5]; first compound 0.002 µM): 0.228 | relative viability ([5]; first compound 0.006325 µM): 0.151 | relative viability ([5]; first compound 0.02 µM): 0.0803 | relative viability ([6]; first compound 0.0002 µM): 0.456 | relative viability ([6]; first compound 0.000632 µM): 0.638 | relative viability ([6]; first compound 0.002 µM): 0.183 | relative viability ([6]; first compound 0.006325 µM): 0.141 | relative viability ([6]; first compound 0.02 µM): 0.0997 | relative viability ([7]; first compound 0.0002 µM): 0.648 | relative viability ([7]; first compound 0.000632 µM): 0.679 | relative viability ([7]; first compound 0.002 µM): 0.0905 | relative viability ([7]; first compound 0.006325 µM): 0.0687 | relative viability ([7]; first compound 0.02 µM): 0.0257 | relative viability ([8]; first compound 0.0002 µM): 0.543 | relative viability ([8]; first compound 0.000632 µM): 0.471 | relative viability ([8]; first compound 0.002 µM): 0.403 | relative viability ([8]; first compound 0.006325 µM): 0.31 | relative viability ([9]; first compound 0.0002 µM): 0.32 | relative viability ([9]; first compound 0.000632 µM): 0.276 | relative viability ([9]; first compound 0.006325 µM): 0.136 | relative viability ([9]; first compound 0.02 µM): 0.0951 | relative viability ([10]; first compound 0.0002 µM): 0.401 | relative viability ([10]; first compound 0.000632 µM): 0.313 | relative viability ([10]; first compound 0.002 µM): 0.193 | relative viability ([10]; first compound 0.006325 µM): 0.247 | relative viability ([10]; first compound 0.02 µM): 0.159 | relative viability ([11]; first compound 0.0002 µM): 0.328 | relative viability ([11]; first compound 0.000632 µM): 0.446 | relative viability ([11]; first compound 0.002 µM): 0.355 | relative viability ([11]; first compound 0.006325 µM): 0.32 | relative viability ([12]; first compound 0.0002 µM): 0.62 | relative viability ([12]; first compound 0.000632 µM): 0.788 | relative viability ([12]; first compound 0.002 µM): 0.358 | relative viability ([12]; first compound 0.006325 µM): 0.216 | relative viability ([12]; first compound 0.02 µM): 0.147 | relative viability ([13]; first compound 0.0002 µM): 0.886 | relative viability ([13]; first compound 0.000632 µM): 0.737 | relative viability ([13]; first compound 0.002 µM): 0.345 | relative viability ([13]; first compound 0.006325 µM): 0.297 | relative viability ([13]; first compound 0.02 µM): 0.226 | relative viability ([14]; first compound 0.0002 µM): 0.503 | relative viability ([14]; first compound 0.000632 µM): 0.513 | relative viability ([14]; first compound 0.002 µM): 0.324 | relative viability ([14]; first compound 0.006325 µM): 0.329 | relative viability ([14]; first compound 0.02 µM): 0.199 | relative viability ([15]; first compound 0.0002 µM): 0.53 | relative viability ([15]; first compound 0.000632 µM): 0.561 | relative viability ([15]; first compound 0.002 µM): 0.346 | relative viability ([15]; first compound 0.006325 µM): 0.3 | relative viability ([16]; first compound 0.0002 µM): 0.456 | relative viability ([16]; first compound 0.000632 µM): 0.155 | relative viability ([16]; first compound 0.002 µM): 0.235 | relative viability ([16]; first compound 0.006325 µM): 0.16 | relative viability ([16]; first compound 0.02 µM): 0.104 | relative viability ([17]; first compound 0.0002 µM): 0.243 | relative viability ([17]; first compound 0.000632 µM): 0.349 | relative viability ([17]; first compound 0.002 µM): 0.262 | relative viability ([17]; first compound 0.006325 µM): 0.271 | relative viability ([17]; first compound 0.02 µM): 0.229 | relative viability ([18]; first compound 0.0002 µM): 1.04 | relative viability ([18]; first compound 0.000632 µM): 1 | relative viability ([18]; first compound 0.002 µM): 1.07 | relative viability ([18]; first compound 0.006325 µM): 0.577 | relative viability ([18]; first compound 0.02 µM): 0.472 | relative viability ([19]; first compound 0.0002 µM): 0.528 | relative viability ([19]; first compound 0.000632 µM): 0.579 | relative viability ([19]; first compound 0.002 µM): 0.223 | relative viability ([19]; first compound 0.006325 µM): 0.155 | relative viability ([19]; first compound 0.02 µM): 0.0909 | relative viability ([20]; first compound 0.0002 µM): 0.384 | relative viability ([20]; first compound 0.000632 µM): 0.441 | relative viability ([20]; first compound 0.002 µM): 0.262 | relative viability ([20]; first compound 0.006325 µM): 0.26 | relative viability ([20]; first compound 0.02 µM): 0.183 | relative viability ([21]; first compound 0.0002 µM): 0.843 | relative viability ([21]; first compound 0.000632 µM): 0.83 | relative viability ([21]; first compound 0.002 µM): 0.586 | relative viability ([21]; first compound 0.006325 µM): 0.268
